Reference: PMC9785230, “Glutamine Synthetase Contributes to the Regulation of Growth, Conidiation, Sclerotia Development, and Resistance to Oxidative Stress in the Fungus Aspergillus flavus” (Toxins, 2022)

Target: T1, glutamine synthetase AflGsA (recombinant rAflGsA) (Aspergillus flavus, UniProt A0A7U2MSK3)
T1 construct: gene F9C07_2280198; 6× His-rAflGsA, AflgsA cDNA cloned into pET-28a, expressed in E. coli BL21 (DE3)
T1 sequence (A0A7U2MSK3 1-357): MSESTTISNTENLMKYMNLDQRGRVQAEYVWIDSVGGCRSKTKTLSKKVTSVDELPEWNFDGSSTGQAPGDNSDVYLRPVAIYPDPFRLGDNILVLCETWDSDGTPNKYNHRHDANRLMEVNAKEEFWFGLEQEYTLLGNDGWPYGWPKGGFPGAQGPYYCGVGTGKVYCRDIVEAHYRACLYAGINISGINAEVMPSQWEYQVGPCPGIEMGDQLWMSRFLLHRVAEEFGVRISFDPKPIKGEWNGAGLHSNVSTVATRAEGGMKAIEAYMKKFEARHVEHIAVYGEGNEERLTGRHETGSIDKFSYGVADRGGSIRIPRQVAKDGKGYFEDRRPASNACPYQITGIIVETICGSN
Assay: glutamine synthetase activity assay at […] nm with purified recombinant enzyme, IC50 curve
Type: biochemical

N[C@@H](CCCC(=O)O)C(=O)O [L-α-aminoadipic acid]
IC50: 288 µM
